Assay results reported in US5464617A, “β-lactam compounds” (Hoffmann-La Roche Inc., priority 1994, dated 1995).
≈ marks a conversion by molar mass, not a printed value. Where a name gives a salt, the structure may show the parent alone.

Columns and labels:
[1] = test system: Citrobacter freundii 1982; assay: MIC in vitro of a 1:4 combination of ceftriaxone with a compound of formula I (Test D); assay type: cell-based; details: test D
Protocol: The minimum inhibitory concentration in vitro ([…]) of a 1:4 combination of ceftriaxone with a compound of formula I against Citrobacter freundii 1982 was measured and compiled in Table 2 hereinafter.

E. coli 1346 = assay: Antibacterial activity of the products per se, serial dilution method in liquid medium (Test E); assay type: cell-based; details: test E, product per se
Text: The antibacterial activity of the products per se is illustrated on the basis of Table 3 hereinafter, the minimum inhibitory concentration […] in vitro against E. coli 1346 being determined using the serial dilution method in liquid medium: […]

[2] = Table 4, 1:4 combination of ceftriaxone with the compound

| SMILES | MIC C. freundii 1982 (D) [1, 2] | MIC E. coli 1346 (E) (E. coli 1346; Table 4) | MIC C. freundii 1982 (D) ([1]; Table 5, particularly preferred products, 1:4 combination with ceftriaxone) | MIC E. coli 1346 (E) (E. coli 1346; Table 5, particularly preferred products) |
| --- | --- | --- | --- | --- |
| N#C/C=C\C1=C(C(=O)O)N2C(=O)[C@H]3NC[C@@H](C1)[C@H]32 [48(a), (Z)-(1aS,3aR,6bR)-5-(2-Cyanovinyl)-1-oxo-1a,2,3,3a,4,6b-hexahydro-1H-2,6a-diazacyclobut[cd]indene-6-carboxylic acid trifluoroacetate] | 4 µg/mL | 16 µg/mL |  |  |
| Cn1ccnc1SCC1=C(C(=O)O)N2C(=O)[C@H]3NC[C@@H](S1)[C@H]32 [40(c), (1aS,3aR,6bS)-5-(1-Methyl-imidazol-2-ylsulphanyl-methyl)-1-oxo-4-thia-1,1a,2,3,3a,6b-hexahydro-2,6a-diazacyclobut[cd]indene-6-carboxylic acid] | 0.5 µg/mL | > 32 µg/mL |  |  |
| O=CN1C[C@H]2OC(CSc3nnnn3CC(=O)NOC(c3ccccc3)(c3ccccc3)c3ccccc3)=C(C(=O)O)N3C(=O)[C@@H]1[C@@H]23 [38(d), (1aS,3aR,6bS)-2-Formyl-1-oxo-5-(1-(trityloxycarbamoylmethyl)-1H-tetrazol-5-ylsulphanylmethyl)-1,1a,2,3,3a,6b-hexahydro-4-oxa-2,6a-diazacyclobut[cd]indene-6-carboxylic acid sodium salt] | 128 µg/mL | > 32 µg/mL |  |  |
| NC(=O)OCC1=C(C(=O)O)N2C(=O)[C@@H]3[C@H]2[C@H](C1)CN3C(=O)NCCc1cccs1 [27(g), (1aS,3aR,6bR)-5-Carbamoyloxymethyl-1-oxo-2-(2-thiophen-2-yl-ethylcarbamoyl)-1a,2,3,3a,4,6b-hexahydro-1H-2,6a-diazacyclobut[cd]indene-6-carboxylic acid sodium salt] | 0.5 µg/mL | > 32 µg/mL |  |  |
| NC(=O)CSC1=C(C(=O)O)N2C(=O)[C@@H]3[C@H]2[C@H](C1)CN3C(=O)Nc1ccc(O)cc1 [3(p), (1aS,3aR,6bR)-5-Carbamoylmethylsulphanyl-2-(4-hydroxyphenylcarbamoyl)-1-oxo-5-(pyridin-4-ylsulphanyl)-1a,2,3,3a,4,6b-hexahydro-1H-2,6a-diazacyclobut[cd]indene-6-carboxylic acid sodium salt] | 1 µg/mL | 32 µg/mL |  |  |
| O=C(O)C1=C(CSc2ccncc2)C[C@@H]2CN(C(=O)C(F)(F)F)[C@@H]3C(=O)N1[C@H]23 [19(g), (1aS,3aR,6bR)-1-Oxo-5-(pyridin-4-ylsulphanylmethyl)-2-trifluoroacetyl-1a,2,3,3a,4,6b-hexahydro-1H-2,6a-diazacyclobut[cd]indene-6-carboxylic acid sodium salt] |  |  | 1 µg/mL | 1 µg/mL |

The next lines start with the values.

| MIC C. freundii 1982 (D) [1, 2] | MIC E. coli 1346 (E) (E. coli 1346; Table 4) | MIC C. freundii 1982 (D) ([1]; Table 5, particularly preferred products, 1:4 combination with ceftriaxone) | MIC E. coli 1346 (E) (E. coli 1346; Table 5, particularly preferred products) | SMILES |
| --- | --- | --- | --- | --- |
| 0.5 µg/mL | 16 µg/mL (≈ 40.6 µM) |  |  | CCOC(=O)N1C[C@H]2CC(CSc3nnnn3C)=C(C(=O)O)N3C(=O)[C@@H]1[C@@H]23 [Example 62, (1aS,3aR,6bR)-5-(1-Methyl-1H-tetrazol-5-ylsulphanylmethyl)-1-oxo-1a,2,3,3a,4,6b-hexahydro-1H-2,6a-diazacyclobut[cd]indene-2,6-dicarboxylic acid 2-ethyl ester] |
| 2 µg/mL | 1 µg/mL |  |  | O=C(NCc1ccc(O)cc1)OCC1=C(C(=O)O)N2C(=O)[C@@H]3[C@H]2[C@H](C1)CN3C(=O)C(F)(F)F [102(b), (1aS,3aR,6bR)-5-[(4-Hydroxy-benzyl)-carbamoyloxymethyl]-2-trifluoroacetyl-1-oxo-1a,2,3,3a,4,6b-hexahydro-1H-2,6a-diazacyclobut[cd]indene-6-carboxylicacid sodium salt] |
| 0.12 µg/mL | 8 µg/mL |  |  | NC(=O)OCC1=C(C(=O)O)N2C(=O)[C@@H]3[C@H]2[C@H](C1)CN3C(=O)CSc1nnc(N)s1 [58(f), (1aS,3aR,6bR)-2-(5-Amino-1,3,4-thiadiazol-2-ylsulphanylacetyl)-5-carbamoyloxymethyl-1-oxo-1a,2,3,3a,4,6b-hexahydro-1H-2,6a-diazacyclobut[cd]indene-6-carboxylic acid sodium salt] |
